Measured values as given in patent US11142525B2 (Pfizer Inc., priority 2018, dated 2021).

Columns and labels:
[1] = biological target: human full-length recombinant HPK1 (Homo sapiens (Human), UniProt Q92918); experiment: HPK1 biochemical enzyme assay, microfluidic mobility shift assay (MSA); details: HPK1 mobility shift assay; read-out: HPK1 Enzyme Assay_Ki
[2] = system: phospho-SLP-76 (Ser376) in Jurkat cells; experiment: Phospho-SLP-76 (Ser376) Homogeneous Time Resolved Fluorescence (HTRF) assay in Jurkat cells; type: cell-based; details: Homo sapiens, Phospho-SLP-76 (Ser376) HTRF, anti-CD3 stimulation, read-out: SLP76 Assay_IC50
Summary of the method: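 Phospho-SLP-76 in lysates was read by sandwich HTRF and IC50 derived by four-parameter nonlinear regression. Before lysis, cells had received compound for 30 min (11-point, 3-fold series from 10 μM, 0.1% DMSO), followed by anti-CD3 F(ab)2 complex (200 μg/mL, 15 min, 37 °C).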

Chain of human full-length recombinant HPK1 (Q92918 whole entry): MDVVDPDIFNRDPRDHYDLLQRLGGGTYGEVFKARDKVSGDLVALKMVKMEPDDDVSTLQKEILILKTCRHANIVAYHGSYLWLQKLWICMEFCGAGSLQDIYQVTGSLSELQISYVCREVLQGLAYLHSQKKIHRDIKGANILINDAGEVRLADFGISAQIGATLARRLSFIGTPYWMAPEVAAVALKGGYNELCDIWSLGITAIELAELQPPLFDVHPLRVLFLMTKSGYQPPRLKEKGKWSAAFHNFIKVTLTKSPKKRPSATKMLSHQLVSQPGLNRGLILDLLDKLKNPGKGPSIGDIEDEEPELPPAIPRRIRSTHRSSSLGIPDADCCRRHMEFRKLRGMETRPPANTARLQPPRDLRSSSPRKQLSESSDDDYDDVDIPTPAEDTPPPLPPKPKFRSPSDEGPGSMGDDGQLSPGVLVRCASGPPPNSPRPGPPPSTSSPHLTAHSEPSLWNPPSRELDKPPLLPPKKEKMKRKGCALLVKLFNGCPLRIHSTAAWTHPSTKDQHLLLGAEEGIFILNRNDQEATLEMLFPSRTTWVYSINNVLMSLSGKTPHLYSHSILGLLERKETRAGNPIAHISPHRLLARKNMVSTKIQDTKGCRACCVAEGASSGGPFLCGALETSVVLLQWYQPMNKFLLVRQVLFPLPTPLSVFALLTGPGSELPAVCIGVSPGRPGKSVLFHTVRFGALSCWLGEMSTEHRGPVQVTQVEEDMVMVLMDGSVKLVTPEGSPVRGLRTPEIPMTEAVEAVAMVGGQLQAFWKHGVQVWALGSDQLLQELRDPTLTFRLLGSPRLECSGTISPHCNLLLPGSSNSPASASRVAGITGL

Structure (SMILES) | Ki [1] | IC50 [2]
CNCc1nc(N2[C@H](C)CC[C@H]2C)cc2c1CN(c1cccc(-c3nnc(C)n3C(C)C)n1)C2=O [Example 116, 6-[(2R,5R)-2,5-dimethylpyrrolidin-1-yl]-4-[(methylamino)methyl]-2-{6-[5-methyl-4-(propan-2-yl)-4H-1,2,4-triazol-3-yl]pyridin-2-yl}-2,3-dihydro-1H-pyrrolo[3,4-c]pyridin-1-one] | 1.04 nM | 381 nM
CCC(CC)n1cnnc1-c1cccc(N2Cc3c(cc(N(C)C)nc3CN)C2=O)n1 [Example 117, 4-(aminomethyl)-6-(dimethylamino)-2-{6-[4-(pentan-3-yl)-4H-1,2,4-triazol-3-yl]pyridin-2-yl}-2,3-dihydro-1H-pyrrolo[3,4-c]pyridin-1-one] | 0.46 nM | 89 nM
CNCc1nc(N2[C@H](C)CC[C@H]2C)cc2c1CN(c1cccc(N3C(=O)OC[C@@H]3CF)n1)C2=O [Example 118, 6-[(2R,5R)-2,5-dimethylpyrrolidin-1-yl]-2-{6-[(4R)-4-(fluoromethyl)-2-oxo-1,3-oxazolidin-3-yl]pyridin-2-yl}-4-[(methylamino)methyl]-2,3-dihydro-1H-pyrrolo[3,4-c]pyridin-1-one] | 0.89 nM | 149 nM
CCC(CC)n1cnnc1-c1cccc(N2Cc3c(cc(N4[C@H](C)CC[C@H]4C)nc3CN)C2=O)n1 [Example 119, 4-(aminomethyl)-6-[(2R,5R)-2,5-dimethylpyrrolidin-1-yl]-2-{6-[4-(pentan-3-yl)-4H-1,2,4-triazol-3-yl]pyridin-2-yl}-2,3-dihydro-1H-pyrrolo[3,4-c]pyridin-1-one] | 0.52 nM | 104 nM
CCCn1cnnc1-c1cccc(N2Cc3c(cc(N4CCC[C@@H]4C(F)(F)F)nc3CNC)C2=O)n1 [Example 120, 4-[(methylamino)methyl]-2-[6-(4-propyl-4H-1,2,4-triazol-3-yl)pyridin-2-yl]-6-[(2R)-2-(trifluoromethyl)pyrrolidin-1-yl]-2,3-dihydro-1H-pyrrolo[3,4-c]pyridin-1-one] | < 0.09 nM | 56 nM
CCC(CC)n1cnnc1-c1cccc(N2Cc3c(cc(N(CC)CC)nc3CN)C2=O)n1 [Example 122, 4-(aminomethyl)-6-(diethylamino)-2-{6-[4-(pentan-3-yl)-4H-1,2,4-triazol-3-yl]pyridin-2-yl}-2,3-dihydro-1H-pyrrolo[3,4-c]pyridin-1-one] | 0.41 nM | 70 nM
CCN(c1cc2c(c(CN)n1)CN(c1cccc(N3C(=O)OC[C@@H]3CF)n1)C2=O)C(C)C [Example 123, 4-(aminomethyl)-6-[ethyl(propan-2-yl)amino]-2-{6-[(4R)-4-(fluoromethyl)-2-oxo-1,3-oxazolidin-3-yl]pyridin-2-yl}-2,3-dihydro-1H-pyrrolo[3,4-c]pyridin-1-one] | 1.03 nM | 273 nM
C[C@@H]1CC[C@@H](C)N1c1cc2c(c(CN)n1)CN(c1cccc(N3C(=O)OC[C@@H]3CF)n1)C2=O [Example 124, 4-(aminomethyl)-6-[(2R,5R)-2,5-dimethylpyrrolidin-1-yl]-2-{6-[(4R)-4-(fluoromethyl)-2-oxo-1,3-oxazolidin-3-yl]pyridin-2-yl}-2,3-dihydro-1H-pyrrolo[3,4-c]pyridin-1-one] | 1.5 nM | 375 nM
C[C@@H]1CCCN1c1cc2c(c(CN)n1)CN(c1cccc(N3C(=O)OC[C@@H]3C)n1)C2=O [Example 125, 4-(aminomethyl)-2-{6-[(4S)-4-methyl-2-oxo-1,3-oxazolidin-3-yl]pyridin-2-yl}-6-[(2R)-2-methylpyrrolidin-1-yl]-2,3-dihydro-1H-pyrrolo[3,4-c]pyridin-1-one] | 0.1 nM | 50 nM
CCC(CC)n1cnnc1-c1cccc(N2Cc3c(cc(C4(C)CC4)nc3CN)C2=O)n1 [Example 126, 4-(aminomethyl)-6-(1-methylcyclopropyl)-2-{6-[4-(pentan-3-yl)-4H-1,2,4-triazol-3-yl]pyridin-2-yl}-2,3-dihydro-1H-pyrrolo[3,4-c]pyridin-1-one] | 0.8 nM | 114 nM
CCn1c(C)nnc1-c1cccc(N2Cc3c(cc(C4(C)CC4)nc3CN)C2=O)n1 [Example 127, 4-(aminomethyl)-2-[6-(4-ethyl-5-methyl-4H-1,2,4-triazol-3-yl)pyridin-2-yl]-6-(1-methylcyclopropyl)-2,3-dihydro-1H-pyrrolo[3,4-c]pyridin-1-one] | 1.52 nM | 435 nM
CCCn1c(C)nnc1-c1cccc(N2Cc3c(cc(C4(C)CC4)nc3CN)C2=O)n1 [Example 128, 4-(aminomethyl)-6-(1-methylcyclopropyl)-2-[6-(5-methyl-4-propyl-4H-1,2,4-triazol-3-yl)pyridin-2-yl]-2,3-dihydro-1H-pyrrolo[3,4-c]pyridin-1-one] | 0.63 nM | 874 nM
CCC(CC)n1cnnc1-c1cccc(N2Cc3c(cc(C4CC4)nc3CN)C2=O)n1 [Example 129, 4-(aminomethyl)-6-cyclopropyl-2-{6-[4-(pentan-3-yl)-4H-1,2,4-triazol-3-yl]pyridin-2-yl}-2,3-dihydro-1H-pyrrolo[3,4-c]pyridin-1-one] | 0.31 nM | 93 nM
CCCn1c(C)nnc1-c1cccc(N2Cc3c(cc(N(C)CC)nc3CNC)C2=O)n1 [Example 130, 6-[ethyl(methyl)amino]-4-[(methylamino)methyl]-2-[6-(5-methyl-4-propyl-4H-1,2,4-triazol-3-yl)pyridin-2-yl]-2,3-dihydro-1H-pyrrolo[3,4-c]pyridin-1-one] | 0.78 nM | 201 nM
CCN(C)c1cc2c(c(CNC)n1)CN(c1cccc(-c3nncn3CC)n1)C2=O [Example 131, 6-[ethyl(methyl)amino]-2-[6-(4-ethyl-4H-1,2,4-triazol-3-yl)pyridin-2-yl]-4-[(methylamino)methyl]-2,3-dihydro-1H-pyrrolo[3,4-c]pyridin-1-one] | 0.11 nM | 57 nM
C[C@H]1CCCN1c1cc2c(c(CN)n1)CN(c1cccc(N3C(=O)OC[C@@H]3C)n1)C2=O [Example 132, 4-(aminomethyl)-2-{6-[(4S)-4-methyl-2-oxo-1,3-oxazolidin-3-yl]pyridin-2-yl}-6-[(2S)-2-methylpyrrolidin-1-yl]-2,3-dihydro-1H-pyrrolo[3,4-c]pyridin-1-one] | 0.2 nM | 67 nM
CCC(CC)n1c(C)nnc1-c1cccc(N2Cc3c(cc(N4CCC[C@@H]4C)nc3CNC)C2=O)n1 [Example 135, 4-[(methylamino)methyl]-2-{6-[5-methyl-4-(pentan-3-yl)-4H-1,2,4-triazol-3-yl]pyridin-2-yl}-6-[(2S)-2-methylpyrrolidin-1-yl]-2,3-dihydro-1H-pyrrolo[3,4-c]pyridin-1-one] | 0.8 nM | > 10000 nM
CCCn1cnnc1-c1cccc(N2Cc3c(cc(N4[C@H](C)CC[C@H]4C)nc3CN)C2=O)n1 [Example 136, 4-(aminomethyl)-6-[(2R,5R)-2,5-dimethylpyrrolidin-1-yl]-2-[6-(4-propyl-4H-1,2,4-triazol-3-yl)pyridin-2-yl]-2,3-dihydro-1H-pyrrolo[3,4-c]pyridin-1-one] | 0.73 nM | 106 nM
C[C@@H]1CC[C@@H](C)N1c1cc2c(c(CN)n1)CN(c1cccc(N3C(=O)OC[C@@H]3C)n1)C2=O [Example 137, 4-(aminomethyl)-6-[(2R,5R)-2,5-dimethylpyrrolidin-1-yl]-2-{6-[(4S)-4-methyl-2-oxo-1,3-oxazolidin-3-yl]pyridin-2-yl}-2,3-dihydro-1H-pyrrolo[3,4-c]pyridin-1-one] | 0.28 nM | 76 nM
CCC(CC)n1cnnc1-c1cccc(N2Cc3c(cc(N4CCC[C@@H]4C)nc3CNC)C2=O)n1 [Example 138, 4-[(methylamino)methyl]-6-[(2S)-2-methylpyrrolidin-1-yl]-2-{6-[4-(pentan-3-yl)-4H-1,2,4-triazol-3-yl]pyridin-2-yl}-2,3-dihydro-1H-pyrrolo[3,4-c]pyridin-1-one] | 0.09 nM | > 10000 nM
CC[C@@H](C)n1cnnc1-c1cccc(N2Cc3c(cc(C4(C)CC4)nc3CNC)C2=O)n1 [Example 139, 2-(6-{4-[(2R)-butan-2-yl]-4H-1,2,4-triazol-3-yl}pyridin-2-yl)-4-[(methylamino)methyl]-6-(1-methylcyclopropyl)-2,3-dihydro-1H-pyrrolo[3,4-c]pyridin-1-one] | 0.46 nM | 266 nM
CCN(c1cc2c(c(CN)n1)CN(c1cccc(-c3nncs3)n1)C2=O)C(C)C [Example 140, 4-(aminomethyl)-6-[ethyl(propan-2-yl)amino]-2-[6-(1,3,4-thiadiazol-2-yl)pyridin-2-yl]-2,3-dihydro-1H-pyrrolo[3,4-c]pyridin-1-one] | 2.07 nM | 464 nM
CCN(c1cc2c(c(CN)n1)CN(c1cccc(-c3nncn3CC)n1)C2=O)C(C)C [Example 141, 4-(aminomethyl)-6-[ethyl(propan-2-yl)amino]-2-[6-(4-ethyl-4H-1,2,4-triazol-3-yl)pyridin-2-yl]-2,3-dihydro-1H-pyrrolo[3,4-c]pyridin-1-one] | 0.74 nM | 122 nM
CCC(CC)n1cnnc1-c1cccc(N2Cc3c(cc(C4CC4)nc3CNC)C2=O)n1 [Example 142, 6-cyclopropyl-4-[(methylamino)methyl]-2-{6-[4-(pentan-3-yl)-4H-1,2,4-triazol-3-yl]pyridin-2-yl}-2,3-dihydro-1H-pyrrolo[3,4-c]pyridin-1-one] | 0.52 nM | 239 nM
CCC(CC)n1cnnc1-c1cccc(N2Cc3c(cc(N4CCC[C@H]4C)nc3CN)C2=O)n1 [Example 143, 4-(aminomethyl)-6-[(2R)-2-methylpyrrolidin-1-yl]-2-{6-[4-(pentan-3-yl)-4H-1,2,4-triazol-3-yl]pyridin-2-yl}-2,3-dihydro-1H-pyrrolo[3,4-c]pyridin-1-one] | 0.09 nM | 28 nM
